Here are results for three molecules from patent US12496320B2, “Lactobacillus sp. strain and use thereof” (LG HOUSEHOLD & HEALTH CARE LTD., priority 2020, dated 2025).

Common to all, as to assay type: cell-based
One experiment relates to MNT-1 melanoma cells. In words: Melanin production inhibitory ability. The following applies: 200 μg/mL, 72 hours. The procedure: The melanin production inhibitory ability (brightening) of the Lactobacillus pentosus […]-1 strain of the present invention was investigated. Specifically, MNT-1 melanoma cells were prepared by adding 10% FBS to DMEM (Dulbecco's Modified Eagle's Medium) as a basal medium. Then, the MNT-1 melanoma cells were seeded in a 6-well plate at a concentration of 1 to 2×10^5 cells/mL and cultured for 24 hours. Subsequently, the strain of the present invention was treated, and the cells were cultured for 72 hours and then recovered. Then, after centrifugation at 13,000 rpm for 1 minute and removal of the supernatant, 300 μL of a 0.5% Triton X-100 solution was added to the pellet to lyse the cells. Thereafter, centrifugation was performed at 13,000 rpm for 3 minutes, and the pellet and supernatant were recovered. Then, 100 μL of 0.5N NaOH was added to the pellet, and the cells were incubated overnight to dissolve melanin, and then the absorbance at 450 nm was measured using an ELISA reader.

Experiment [1] concerns raw 264.7 mouse macrophages. In words: Nitric oxide production inhibitory ability, GRIESS method, LPS stimulated. The following applies: 100 uM, 500 ng/mL LPS. The procedure:
The NO production inhibitory ability of the Lactobacillus pentosus NIFSLG-1 strain of the present invention was investigated. Specifically, the nitric oxide (NO) production ability in raw 264.7 mouse macrophages was evaluated for anti-inflammatory efficacy using the GRIESS method. First, the Raw 264.7 cells (2×10^5 cells/well) were dispensed into a 24-well culture plate, cultured in a DMEM medium containing 10% FBS (fetal bovine serum) for 24 hours, and then cultured in a medium without FBS for 12 hours. Subsequently, […] and pretreated for 30 minutes, and added to the cells with LPS (lipopolysaccharide) to a final concentration of 500 ng/ml, and then cultured for 18 hours.
Thereafter, the supernatant was recovered, and the GRIESS reagent was added, followed by reacting at room temperature for 15 minutes, and the absorbance was measured at 540 nm to evaluate the relative NO production and production inhibitory ability.
(In general: Griess reagent forms a coloured azo dye with nitrite.)

Another experiment has as its system skin fibroblasts. In words: Collagen synthesis effect, ELISA. Particulars: concentration 100 (unit not given), 24 hours. Here is the method: The efficacy of collagen synthesis was investigated for the Lactobacillus pentosus […]-1 strain of the present invention. Specifically, after primary culture of skin fibroblasts, DMEM (Dulbecco's Modified Eagle's Medium) with an addition of 10% FBS was used as a basal medium for the skin fibroblasts. Then, the skin fibroblasts were seeded in a 48-well plate at a concentration of 2 to 5×10^4 cells/mL and cultured for 24 hours. Subsequently, the growth medium was removed, and a medium containing the strain of the present invention (without FBS added) was added, and the cells were cultured for 24 hours, and thereafter the cell culture solution was taken and subjected to ELISA analysis.
A general note: An ELISA detects its analyte on a solid surface through an enzyme-linked reagent.

For `OC[C@H]1O[C@@H](Oc2ccc(O)cc2)[C@H](O)[C@@H](O)[C@@H]1O` [Arbutin], the “Melanin content (% control)” value in the experiment on MNT-1 melanoma cells is 74.37 % control. Regarding `CNC(=N)NCCC[C@H](N)C(=O)O` [L-NMMA], in experiment [1], the “Inhibition Rate (% control) of NO production” value was 81.2 % control.

With `O=C1O[C@H]([C@@H](O)CO)C(O)=C1O` [Vita C], the “Collagen (% control)” value in the experiment with skin fibroblasts amounted to 161.91 % control.
